Results: patent US20090170898A1, “Sulphonamide Derivatives as Modulators of the Glucocorticoid Receptor” (priority 2006, published 2009)

Molecular target: T1, recombinant human GR (Homo sapiens, UniProt P04150)
T1 construct: purchased Panvera/Invitrogen P2812 (kit P2893)
T1 sequence (P04150 1-777): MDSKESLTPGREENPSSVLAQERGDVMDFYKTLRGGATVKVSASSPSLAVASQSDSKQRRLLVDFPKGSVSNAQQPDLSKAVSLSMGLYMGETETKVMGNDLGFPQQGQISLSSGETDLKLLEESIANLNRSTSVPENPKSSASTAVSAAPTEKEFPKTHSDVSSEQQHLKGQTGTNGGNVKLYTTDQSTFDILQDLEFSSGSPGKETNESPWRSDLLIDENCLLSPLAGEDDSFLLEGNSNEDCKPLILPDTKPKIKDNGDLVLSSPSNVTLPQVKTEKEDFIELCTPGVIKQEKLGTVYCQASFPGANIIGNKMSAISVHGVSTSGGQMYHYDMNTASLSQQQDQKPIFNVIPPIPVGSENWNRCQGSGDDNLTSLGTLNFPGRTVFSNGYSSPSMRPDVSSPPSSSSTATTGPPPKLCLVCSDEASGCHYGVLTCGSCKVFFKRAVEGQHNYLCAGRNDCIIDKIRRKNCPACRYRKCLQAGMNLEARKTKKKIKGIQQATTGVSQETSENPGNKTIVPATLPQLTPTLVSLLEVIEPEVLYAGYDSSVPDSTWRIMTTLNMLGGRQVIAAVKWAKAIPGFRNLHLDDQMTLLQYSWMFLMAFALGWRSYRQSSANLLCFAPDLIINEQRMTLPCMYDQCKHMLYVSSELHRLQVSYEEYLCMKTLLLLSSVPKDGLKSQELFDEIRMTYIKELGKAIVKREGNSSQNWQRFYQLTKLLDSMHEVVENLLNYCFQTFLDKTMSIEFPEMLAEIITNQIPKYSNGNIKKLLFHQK
Assay: Human Glucocorticoid Receptor (GR) fluorescence polarization binding assay (GRhuFL_FP_v2)
Conditions: GS Red tracer, 2 hours at room temperature, 100% control 10 μM Dexamethasone, read-out: GRhuFL_FP_v2 (GR-binders) IC50
Procedure: Human Glucocorticoid Receptor (GR) Assay
The assay is based on a commercial kit from Panvera/Invitrogen (Part number P2893). The assay technology is fluorescence polarization. […] The GR and Stabilizing Peptide reagents are stored at −70° C. while the GS Red is stored at −20° C. Also included in the kit are 1M DTT (Panvera, Part number P2325, stored at −20° C.) and GR Screening buffer 10× (Panvera, Part number P2814, stored at −70° C. initially but once thawed stored at room temperature). Avoid repeated freeze/thaws for all reagents. The GR Screening buffer 10× comprises 100 mM potassium phosphate, 200 mM sodium molybdate, 1 mM EDTA and 20% DMSO.
0% control was 100% DMSO and 100% control was 10 μM Dexamethasone. Background solution (8 μL; assay buffer 10×, Stabilizing Peptide, DTT and ice cold MQ water) was added to the background wells. GS Red solution (7 μL; assay buffer 10×, Stabilizing Peptide, DTT, GS Red and ice cold water) was added to all wells except background wells. GR solution (7 μL; assay buffer 10×, Stabilizing Peptide, DTT, GR and ice cold water) was added to all wells. The plate was sealed and incubated in a dark at room temperature for 2 hours.

Structure (SMILES)	IC50
O=S(=O)(N[C@H]1CCN(c2cccc3c2cnn3-c2ccc(F)nc2)C1)c1c(Cl)cc(Cl)cc1Cl [Example 3, 2,4,6-Trichloro-N-[(3S)-1-[1-(6-fluoropyridin-3-yl)-1H-indazol-4-yl]pyrrolidin-3-yl]benzenesulfonamide]	0.019 µM
O=S(=O)(N[C@H]1CCN(c2cccc3c2cnn3-c2ccc(F)cc2)C1)c1c(Cl)cc(Cl)cc1Cl [Example 4, 2,4,6-Trichloro-N-{(3S)-1-[1-(4-fluorophenyl)-1H-indazol-4-yl]pyrrolidin-3-yl}benzenesulfonamide]	0.025 µM
Cc1cc(Cl)cc(Cl)c1S(=O)(=O)N[C@H]1CCN(c2cccc3c2cnn3-c2ccc(F)nc2)C1 [Example 5, 2,4-Dichloro-N-{(3S)-1-[1-(6-fluoropyridin-3-yl)-1H-indazol-4-yl]pyrrolidin-3-yl}-6-methylbenzenesulfonamide]	0.025 µM
Cc1cc(C)c(S(=O)(=O)N[C@H]2CCN(c3cccc4c3cnn4-c3ccc(F)nc3)C2)c(C)c1 [Example 7, N-{(3S)-1-[1-(6-Fluoropyridin-3-yl)-1H-indazol-4-yl]pyrrolidin-3-yl}-2,4,6-trimethylbenzenesulfonamide]	0.038 µM

Further molecules by falling IC50, results first:

IC50	Structure (SMILES)
0.12 µM	Cc1nn(C2CCCC2)c(C)c1S(=O)(=O)N[C@H]1CCN(c2cccc3c2cnn3-c2ccc(F)cc2)C1 [Example 9, 1-Cyclopentyl-N-{(3S)-1-[1-(4-fluorophenyl)-1H-indazol-4-yl]pyrrolidin-3-Yl}-3,5-dimethyl-1H-pyrazole-4-sulfonamide]
0.048 µM	Cc1cc(C)c(S(=O)(=O)N[C@H]2CCN(c3cccc4ncccc34)C2)c(C)c1 [Example 1, 2,4,6-Trimethyl-N-[(3S)-1-quinolin-5-ylpyrrolidin-3-yl]benzenesulfonamide]
0.026 µM	Cc1cc(Cl)cc(Cl)c1S(=O)(=O)N[C@H]1CCN(c2cccc3ncccc23)C1 [Example 6, 2,4-Dichloro-6-methyl-N-[(3S)-1-quinolin-5-ylpyrrolidin-3-yl]benzenesulfonamide]
0.017 µM	O=S(=O)(N[C@H]1CCN(c2cccc3ncccc23)C1)c1c(Cl)cc(Cl)cc1Cl [Example 2, 2,4,6-Trichloro-N-[(3S)-1-quinolin-5-ylpyrrolidin-3-yl]benzenesulfonamide]
